How the values were obtained:
[1] = tested on: HCT-116; test: NCI-60 human cancer cell line panel, five dose screen; type: cell-based; conditions: NCI-60 five dose screen
Source text: (§1) Biological evaluation. The synthesized epothilone analogues were submitted to the NCI for testing against the NCI-60 human cancer cell line panel (Shoemaker, 2006).

[2] = tested on: U251; test: as above; type: cell-based; conditions: U-251, NCI-60 five dose screen
Source text: as §1

[3] = tested on: COLO 205; test: as above; type: cell-based; conditions: NCI-60 five dose screen
Source text: as §1

[4] = tested on: RPMI-8226; test: as above; type: cell-based; conditions: NCI-60 five dose screen
Source text: as §1

[5] = tested on: A498; test: as above; type: cell-based; conditions: NCI-60 five dose screen
Source text: as §1

[6] = tested on: KM12; test: as above; type: cell-based; conditions: NCI-60 five dose screen
Source text: as §1

[7] = tested on: SR; test: as above; type: cell-based; conditions: NCI-60 five dose screen
Source text: as §1

[8] = tested on: SF-539; test: as above; type: cell-based; conditions: NCI-60 five dose screen
Source text: as §1

[9] = tested on: HCT-15; test: as above; type: cell-based; conditions: NCI-60 five dose screen
Source text: as §1

[10] = tested on: PC-3; test: as above; type: cell-based; conditions: NCI-60 five dose screen
Source text: as §1

[11] = tested on: HS 578T; test: as above; type: cell-based; conditions: NCI-60 five dose screen
Source text: as §1

[12] = tested on: MDA-MB-468; test: as above; type: cell-based; conditions: NCI-60 five dose screen
Source text: as §1

[13] = tested on: K-562; test: as above; type: cell-based; conditions: K562, NCI-60 five dose screen
Source text: as §1

[14] = tested on: A549/ATCC; test: as above; type: cell-based; conditions: NCI-60 five dose screen
Source text: as §1

[15] = tested on: HOP-92; test: as above; type: cell-based; conditions: NCI-60 five dose screen, read-out: GI50
Source text: as §1

[16] = tested on: LOX IMVI; test: as above; type: cell-based; conditions: NCI-60 five dose screen
Source text: as §1

[17] = tested on: NCI-H460; test: as above; type: cell-based; conditions: NCI-60 five dose screen
Source text: as §1

[18] = tested on: CCRF-CEM; test: as above; type: cell-based; conditions: NCI-60 five dose screen
Source text: as §1

[19] = tested on: SNB-75; test: as above; type: cell-based; conditions: NCI-60 five dose screen
Source text: as §1

[20] = tested on: MOLT-4; test: as above; type: cell-based; conditions: NCI-60 five dose screen
Source text: as §1

[21] = tested on: SW-620; test: as above; type: cell-based; conditions: NCI-60 five dose screen
Source text: as §1

[22] = tested on: RXF 393; test: as above; type: cell-based; conditions: NCI-60 five dose screen
Source text: as §1

[23] = tested on: HL-60(TB); test: as above; type: cell-based; conditions: NCI-60 five dose screen
Source text: as §1

[24] = tested on: MDA-MB-435; test: as above; type: cell-based; conditions: NCI-60 five dose screen
Source text: as §1

[25] = tested on: SK-MEL-5; test: as above; type: cell-based; conditions: NCI-60 five dose screen
Source text: as §1

[26] = tested on: MCF7; test: as above; type: cell-based; conditions: NCI-60 five dose screen
Source text: as §1

[27] = tested on: HT29; test: as above; type: cell-based; conditions: HT-29, NCI-60 five dose screen
Source text: as §1

[28] = tested on: M14; test: as above; type: cell-based; conditions: NCI-60 five dose screen
Source text: as §1

[29] = tested on: OVCAR-3; test: as above; type: cell-based; conditions: NCI-60 five dose screen
Source text: as §1

[30] = tested on: NCI-H23; test: as above; type: cell-based; conditions: NCI-60 five dose screen
Source text: as §1

[31] = tested on: MCF-7; test: Cytotoxicity, standard NCI assay with sulforhodamine B, 96 h; conditions: Homo sapiens, MCF7, 96 h, read-out: cytotoxicity (GI50, nM ± SD) MCF-7
[32] = tested on: OVCAR-8; test: as above; conditions: Homo sapiens, OVCAR-8, 96 h, read-out: cytotoxicity (GI50, nM ± SD) OVCAR-8
[33] = tested on: tubulin; test: Induction/enhancement of tubulin assembly (Lin, et al., 1996); type: biochemical; conditions: 10 μM tubulin, 0.4M monosodium glutamate, 30 min at room temperature; Table 2; read-out: induction of tubulin assembly (EC50, μM ± SD)

| Compound | GI50 [1] | GI50 [2] | GI50 [3] | GI50 [4] | GI50 [5] | GI50 [6] | GI50 [8] | GI50 [9] | GI50 [10] | GI50 [11] | GI50 [12] | GI50 [13] | GI50 [14] | GI50 [15] | GI50 [16] | GI50 [17] | GI50 [18] | GI50 [20] | GI50 [21] | GI50 [22] | also measured |
| --- | --- | --- | --- | --- | --- | --- | --- | --- | --- | --- | --- | --- | --- | --- | --- | --- | --- | --- | --- | --- | --- |
| C/C(=C\c1ccn(-c2ccc(N)cc2)n1)[C@@H]1C[C@@H]2O[C@]2(C)CCC[C@H](C)[C@H](O)[C@@H](C)C(=O)C(C)(C)[C@@H](O)CC(=O)O1 [Compound 8] | 18.7 nM | 35.6 nM | 18.6 nM | 21.3 nM | 102 nM | 19.2 nM | 19 nM | 26.7 nM | 30.4 nM | 44 nM | 39.2 nM | 24.7 nM | 36.9 nM | 146 nM | 23.6 nM | 20.5 nM | 34.1 nM | 38.9 nM | 25 nM | 38.4 nM | GI50 [7]: 30.3 nM; GI50 [19]: 11.4 nM; GI50 [23]: 15.8 nM; GI50 [24]: 8.09 nM; GI50 [25]: 20 nM; GI50 [26]: 15.2 nM; GI50 [27]: 19.6 nM; GI50 [28]: 19.2 nM; GI50 [29]: 18.1 nM; GI50 [30]: 25.2 nM; GI50 [31]: 10 nM; GI50 [32]: 38 ± 10 nM; EC50 [33]: 15 ± 4 µM |
| C/C(=C\c1cc(C(F)(F)F)n(-c2ccc(N)cc2)n1)[C@@H]1C[C@@H]2O[C@]2(C)CCC[C@H](C)[C@H](O)[C@@H](C)C(=O)C(C)(C)[C@@H](O)CC(=O)O1 [Compound 9] | 5.31 nM | 38.1 nM | 14.7 nM | 11.1 nM | 66 nM | 5.25 nM | 24.8 nM | 22 nM | 32.2 nM | 36.4 nM | 23.1 nM | 15.7 nM | 48.8 nM | 183 nM | 25 nM | 6.45 nM | 47.6 nM | 48.1 nM | 5.4 nM | 40.7 nM | GI50 [23]: 7.88 nM; GI50 [24]: 2.08 nM; GI50 [25]: 22.1 nM; GI50 [26]: 3.65 nM; GI50 [27]: 5.29 nM; GI50 [28]: 13.7 nM; GI50 [29]: 15.8 nM; GI50 [30]: 88.5 nM; GI50 [31]: 900 nM; GI50 [32]: 300 nM; EC50 [33]: > 40 µM |
| C/C(=C\c1ccn(-c2ccccc2N)n1)[C@@H]1C[C@@H]2O[C@]2(C)CCC[C@H](C)[C@H](O)[C@@H](C)C(=O)C(C)(C)[C@@H](O)CC(=O)O1 [Compound 10] | 18.3 nM | 30.8 nM | 20.4 nM | 17.8 nM | 18.8 nM | 20.6 nM | 15.8 nM | 32.5 nM | 34.3 nM | 31.6 nM | 23.4 nM | 24.4 nM | 34.5 nM | 80.7 nM | 31.3 nM | 20.3 nM | 22.6 nM | 27.6 nM | 24.5 nM | 39.6 nM | GI50 [7]: 27.4 nM; GI50 [19]: 16.4 nM; GI50 [23]: 17.2 nM; GI50 [24]: 9.56 nM; GI50 [25]: 21.9 nM; GI50 [26]: 17.7 nM; GI50 [27]: 18.8 nM; GI50 [28]: 18 nM; GI50 [29]: 18.8 nM; GI50 [30]: 35.8 nM; GI50 [31]: 5.5 nM; GI50 [32]: 23 ± 10 nM; EC50 [33]: 8 ± 1 µM |
| C/C(=C\c1ccn(-c2ccc(N)c(C(F)(F)F)c2)n1)[C@@H]1C[C@@H]2O[C@]2(C)CCC[C@H](C)[C@H](O)[C@@H](C)C(=O)C(C)(C)[C@@H](O)CC(=O)O1 [Compound 11] | 4.82 nM | 14.6 nM | 8.48 nM | 9.98 nM | 11.3 nM | 9.16 nM | 9.55 nM | 11 nM | 12.7 nM | 7.1 nM | 10.6 nM | 10.2 nM | 13.4 nM | 16.1 nM | 10.3 nM | 8.73 nM | 12.3 nM | 14.2 nM | 6.23 nM | 14 nM | GI50 [7]: 7.29 nM; GI50 [19]: 5.75 nM; GI50 [23]: 7.36 nM; GI50 [24]: < 3.25 nM; GI50 [25]: 10.1 nM; GI50 [26]: < 3.25 nM; GI50 [27]: 5.74 nM; GI50 [28]: 4.88 nM; GI50 [29]: 10.2 nM; GI50 [30]: 18.3 nM; GI50 [31]: 3 ± 1 nM; GI50 [32]: 2.5 ± 0.4 nM; EC50 [33]: 2.5 ± 0.5 µM |
| C/C(=C\c1ccn(-c2ccc(N)c(F)c2)n1)[C@@H]1C[C@@H]2O[C@]2(C)CCC[C@H](C)[C@H](O)[C@@H](C)C(=O)C(C)(C)[C@@H](O)CC(=O)O1 [Compound 12] | < 5 nM | < 5 nM | < 5 nM | < 5 nM | < 5 nM | < 5 nM | 9.41 nM | < 5 nM | 9.75 nM | 5.51 nM | 7.22 nM | < 5 nM | 6.05 nM | < 5 nM | < 5 nM | < 5 nM | 6.09 nM | < 5 nM | < 5 nM | 9.39 nM | GI50 [7]: < 5 nM; GI50 [19]: < 5 nM; GI50 [23]: < 5 nM; GI50 [24]: < 5 nM; GI50 [25]: < 5 nM; GI50 [26]: < 5 nM; GI50 [27]: < 5 nM; GI50 [28]: < 5 nM; GI50 [29]: < 5 nM; GI50 [30]: 5.72 nM; GI50 [31]: 2.5 nM; GI50 [32]: 1.8 ± 0.4 nM; EC50 [33]: 7.8 ± 1 µM |
